Results published in patent US9976170B2, “Method for evaluating bacterial cell wall integrity” (UNIVERSIDAD AUTONOMA DE MADRID, priority 2011, dated 2018).
In brackets after ≈: the same amount, converted by molar mass.

What was measured:
Format in all cases: cell-based
[1] = test system: ampicillin-sensitive E. coli strain; test: microgranular-fibrillar background in microgels stained with SYBR Gold (Example 8); conditions: 32 μg/mL, 60 minutes
Procedure: The experiment was conducted with a strain of ampicillin-sensitive E. coli and a strain of imipenem-sensitive A. baumanii. The first strain was incubated with 32 μg/mL ampicillin and the second strain with 0.76 μg/mL imipenem for 60 minutes in Mueller-Hinton liquid medium at 37° C. under stirring. After incubation, each culture with the cells was included in microgels on the slide. A microgel containing the antibiotic-free control culture, and 2 microgels containing the culture treated with antibiotic were placed on each slide. The size of each microgel corresponds to a 18×18 mm slide cover. The microgels on some slides were washed in a proteinase K buffer (1% SDS, 2 mM EDTA) and the microgels on other slides were washed in a DNAase I buffer (20 mM Tris-HCl, pH 8.3, 2 mM MgCl2). In the former, one of the microgels containing the culture treated with ampicillin was incubated only with a proteinase K buffer and the other microgel containing the culture treated with ampicillin was incubated with 5 μl of 2 mg/mL proteinase K, in the buffer thereof. In the slides washed with a DNAase I buffer, one of the microgels containing the culture treated with ampicillin was incubated only with a DNAase I buffer and the other microgel containing the culture treated with ampicillin was incubated with 5 μl of 2.5 U DNAase I, in the buffer thereof. […]

[2] = test system: Enterococcus faecium, ampicillin- and benzylpenicillin-resistant strain; test: MIC by microdilution and/or E-test
Text: (§1) The strains and the antibiotics used were: • Gram+ • Enterococcus faecalis.
(§2) The doses of antibiotic applied were 0, the MIC determined in the Microbiology Laboratory by means of the microdilution and/or E-test technique, and those of the cutoff points of sensitivity and resistance indicated by the Clinical and Laboratory Standards Institute (CLSI) for each strain. A dose 10 times higher than the MIC was also used.

[3] = test system: Enterococcus faecalis, ampicillin-sensitive and benzylpenicillin-resistant strain; test: MIC by microdilution and/or E-test
Text: as §1, §2

[4] = test system: ampicillin-sensitive E. coli strain; test: incubation with increasing doses of antibiotic, lysed/non-lysed cells normalized by OD 600 (persisters); conditions: 60 minutes; for Lysed Cells Relative / Non-lysed Cells Relative: normalized by OD 600
[5] = test system: Escherichia coli, ampicillin- and ceftazidime-resistant strain; test: technique for evaluating cell wall integrity (lysis solution, nucleoid release, fluorescence microscopy); conditions: 60 minutes
Procedure: (§3) Different bacterial strains grown on a dish with Mueller-Hinton medium for 24 hours were subsequently exposed to a β-lactam antibiotic for 60 minutes in Mueller-Hinton liquid medium at 37° C., under stirring, and were finally processed by means of the technique for evaluating cell wall integrity according to the present invention.
as §2

[6] = test system: Enterococcus faecium, ampicillin- and benzylpenicillin-resistant strain; test: as above; conditions: 320 μg/mL, 60 minutes
Procedure: as §3, §2

[7] = test system: Escherichia coli, ceftazidime-sensitive strain with intermediate sensitivity to ampicillin; test: as above; conditions: 60 minutes
Procedure: as §3, §2

[8] = test system: Enterococcus faecalis, ampicillin-sensitive and benzylpenicillin-resistant strain; test: as above; conditions: 60 minutes
Procedure: as §3, §2

`CC1(C)S[C@@H]2[C@H](NC(=O)[C@H](N)c3ccccc3)C(=O)N2[C@H]1C(=O)O` [ampicillin] was tested, and the “microgranular-fibrillar background in the preparation” value [1] was “showed the background”, the MIC [2] was greater than 32 µg/mL and the MIC [3] was 4 µg/mL (≈ 11.4 µM). The “Lysed Cells %” value ([4]; dose 2 μg/mL) was 90.3%, the “Non-lysed Cells %” value ([4]; dose 2 μg/mL) was 9.7% and the “OD600 (ODinitial = 0.1)” value ([4]; dose 2 μg/mL) was 0.323. The “RELATIVE OD600 %” value ([4]; dose 2 μg/mL) was 77.6%, the “Lysed Cells Relative” value ([4]; dose 2 μg/mL) was 70.1 and the “Non-lysed Cells Relative” value ([4]; dose 2 μg/mL) was 7.5. The “Lysed Cells %” value ([4]; dose 8 μg/mL) was 70.6%, the “Non-lysed Cells %” value ([4]; dose 8 μg/mL) was 29.3% and the “OD600 (ODinitial = 0.1)” value ([4]; dose 8 μg/mL) was 0.120. The “RELATIVE OD600 %” value ([4]; dose 8 μg/mL) was 28.8%, the “Lysed Cells Relative” value ([4]; dose 8 μg/mL) was 20.4 and the “Non-lysed Cells Relative” value ([4]; dose 8 μg/mL) was 8.5. For the same compound, the “Lysed Cells %” value ([4]; dose 16 μg/mL) was 37.5%, the “Non-lysed Cells %” value ([4]; dose 16 μg/mL) was 62.5% and the “OD600 (ODinitial = 0.1)” value ([4]; dose 16 μg/mL) was 0.050. The “RELATIVE OD600 %” value ([4]; dose 16 μg/mL) was 12.0%, the “Lysed Cells Relative” value ([4]; dose 16 μg/mL) was 4.5 and the “Non-lysed Cells Relative” value ([4]; dose 16 μg/mL) was 7.5. For the same compound, the “Lysed Cells %” value ([4]; dose 32 μg/mL) was 22.5%, the “Non-lysed Cells %” value ([4]; dose 32 μg/mL) was 77.5% and the “OD600 (ODinitial = 0.1)” value ([4]; dose 32 μg/mL) was 0.027. The “RELATIVE OD600 %” value ([4]; dose 32 μg/mL) was 6.5%, the “Lysed Cells Relative” value ([4]; dose 32 μg/mL) was 1.5 and the “Non-lysed Cells Relative” value ([4]; dose 32 μg/mL) was 5.0. For the same compound, the “Lysed Cells %” value ([4]; dose 160 μg/mL) was 15.0%, the “Non-lysed Cells %” value ([4]; dose 160 μg/mL) was 85.0% and the “OD600 (ODinitial = 0.1)” value ([4]; dose 160 μg/mL) was 0.024. For the same compound, the “RELATIVE OD600 %” value ([4]; dose 160 μg/mL) was 5.8%, the “Lysed Cells Relative” value ([4]; dose 160 μg/mL) was 0.9 and the “Non-lysed Cells Relative” value ([4]; dose 160 μg/mL) was 4.9. For the same compound, the “relative proportion of non-lysed cells” value ([4]; over all increasing doses, according to relative OD 600) was 5-8.5, the “background of extracellular DNA fragments” value ([5]; 256 μg/mL) was “without background” and the “cells lysed with nucleoid with fragmented DNA” value (from here on “cells lysed with nucleoid”) ([5]; 256 μg/mL) was 1%. For the same compound, the lysed cells ([5]; 256 μg/mL) was 0.5%, the “background of extracellular DNA fragments” value ([5]; 2,560 μg/mL) was “subtle background” and the “cells lysed with nucleoid” value ([5]; 2,560 μg/mL) was 1.5%. For the same compound, the empty capsules ([5]; 2,560 μg/mL) was 4%, the heavily lysed cells ([5]; 2,560 μg/mL) was 13% and the moderately lysed cells ([5]; 2,560 μg/mL) was 5%. For the same compound, the “background of extracellular DNA fragments” value [6] was “subtle background”, the “cells with a small halo” value [6] was 2% and the heavily lysed cells [6] was 7.5%. The “lysed cells with nucleoid with fragmented DNA” value (from here on “lysed cells with nucleoid”) [6] was 1%, the non-lysed cells [6] was 89% and the “background of extracellular DNA fragments” value ([7]; 8 μg/mL) was “extensive background”. For the same compound, the “cells lysed with nucleoid” value ([7]; 8 μg/mL) was 9%, the heavily lysed cells ([7]; 8 μg/mL) was 55% and the empty capsules ([7]; 16 μg/mL (MIC)) was 22.6. For the same compound, the “lysed cells with a large halo” value ([7]; 16 μg/mL (MIC)) was 60.4%, the “lysed cells with nucleoid” value ([7]; 16 μg/mL (MIC)) was 5.7% and the non-lysed cells ([7]; 16 μg/mL (MIC)) was 11.3%. For the same compound, the “cells with a large halo” value ([7]; 20 μg/mL) was 47.3%, the empty capsules ([7]; 20 μg/mL) was 31.2% and the “lysed cells with nucleoid” value ([7]; 20 μg/mL) was 8.6%. The non-lysed cells ([7]; 20 μg/mL) was 12.9%, the empty capsules ([7]; 32 and 160 μg/mL) was 54% and the “background of extracellular DNA fragments” value ([8]; 4 μg/mL (MIC)) was “subtle background”. For the same compound, the “cells lysed with fragmented DNA” value ([8]; 4 μg/mL (MIC)) was 12%, the heavily lysed cells ([8]; 4 μg/mL (MIC)) was 35% and the moderately lysed cells ([8]; 4 μg/mL (MIC)) was 25%. For the same compound, the non-lysed cells ([8]; 4 μg/mL (MIC)) was 28%, the “background of extracellular DNA fragments” value ([8]; 40 μg/mL) was “very faint” and the “cells lysed with fragmented DNA nucleoid” value ([8]; 40 μg/mL) was 2%. For the same compound, the “cells with a large lysis halo” value ([8]; 40 μg/mL) was 20%, the “cells with a small halo” value ([8]; 40 μg/mL) was 15% and the non-lysed cells ([8]; 40 μg/mL) was 63%.
